Key:
[1] = Critical micelle concentration (CMC) measurement, dye micellization; type: physicochemical; conditions: fluorescein dye micellization in water, pH 6.9, room temperature
Description: Dye micellization was carried out with a modified version of the method described by Eliyahu et al., Novel dextran-spermine conjugates as transfecting agents: comparing water-soluble and micellar polymers. […] Experiments were carried out on 96-well microtiter plates (excitation at 485 nm, emission at 535 nm). Since the emission of fluorescein is pH-dependent, the pH of the mixture was kept constant at 6.9. The CMC range was determined as the concentration range where the first statistically significant increase in fluorescence was detected.

[2] = target: T1, FAAH (Sus scrofa, UniProt Q9TUI8); test: Fatty acid amide hydrolase (FAAH) inhibition, pig brain homogenate (assay D); type: biochemical
T1 construct: 165 µl of diluted pig brain homogenate; from tissue; host or cells: pig brain homogenate
T1 sequence (Q9TUI8 1-579): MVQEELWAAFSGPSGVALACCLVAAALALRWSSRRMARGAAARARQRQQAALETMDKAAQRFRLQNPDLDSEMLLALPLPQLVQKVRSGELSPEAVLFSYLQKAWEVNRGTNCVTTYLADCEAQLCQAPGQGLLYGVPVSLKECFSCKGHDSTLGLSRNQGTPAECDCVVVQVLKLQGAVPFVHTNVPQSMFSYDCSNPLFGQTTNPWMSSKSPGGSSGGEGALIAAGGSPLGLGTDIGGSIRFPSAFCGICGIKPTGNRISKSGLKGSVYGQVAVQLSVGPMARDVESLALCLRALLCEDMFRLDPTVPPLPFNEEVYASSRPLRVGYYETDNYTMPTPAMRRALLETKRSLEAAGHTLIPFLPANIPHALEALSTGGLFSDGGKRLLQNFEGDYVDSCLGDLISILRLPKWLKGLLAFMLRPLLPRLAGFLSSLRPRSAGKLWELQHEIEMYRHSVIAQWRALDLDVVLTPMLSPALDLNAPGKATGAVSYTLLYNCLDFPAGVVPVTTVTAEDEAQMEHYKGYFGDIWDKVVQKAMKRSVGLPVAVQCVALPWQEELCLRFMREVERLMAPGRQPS
Description: FAAH activity was assessed using pig brain homogenate according to the method described by Omeir et al., Arachidonoyl ethanolamide-[1,2-14C] as a substrate for anandamide amidase. Life Sci. 1995;56(23-24):1999-2005, and adapted by Fowler et al., Ibuprofen inhibits rat brain deamidation of anandamide at pharmacologically relevant concentrations. Mode of inhibition and structure-activity relationship. J Pharmacol Exp Ther. 1997 Nov;283(2):729-34. Briefly, 10 µl of test compounds at the adequate concentration or solvent were incubated at 37°C for 20 min with 165 µl of diluted pig brain homogenate in 10 mM Tris-HCl and 1 mM EDTA, pH 7.6 (corresponding to 100 µg/ml of total protein), 1% w/v fatty acid free BSA (Sigma, San Louis, MO, US) and 25 µl of a mixture 1:1 of nonradioactive AEA [^3H]-AEA (60 Ci mmol^-1) (concentration in the assay was 2 µM). Successively, 400 µl of a mixture 1:1 (v/v) of methanol:chloroform was added at each sample and, after vigorous vortexing, aqueous and organic phases were separated by centrifugation at 10000 rpm for 10 min. The radioactivity associated to the [^3H]-ethanolamine (produced by FAAH-catalysed breakdown of [^3H]-AEA) was measured upon addition of 3 ml of Ultima Gold scintillation liquid (Perkin Elmer, Waltham, MA, US) to 200 µl of the aqueous (upper) phase, using a Beckman LS6500 scintillation counter. Results were expressed as % of FAAH activity vs. pig brain homogenate treated only with solvent.

[3] = tested on: Anandamide transport; test: Anandamide transport (human) cellular functional assay (assay F); type: cell-based; conditions: human U-937 cells, 0.1 µM [3H]-Anandamide, 20 min (assay F)
Description: Anandamide transport is determined using human U-937 cells as receptor source. [3H]-Anandamide (0.1 Ci/mmol), final concentration 0.1 µM is used as substrate. AM-404 is used as reference compound. Reactions are carried out in KRH buffer (pH 7.4) at 37°C for 20 min. The reaction is terminated by rapid vacuum filtration onto glass fiber filters. Radioactivity trapped onto filters is determined and compared to control values in order to ascertain any interactions of test compound with anandamide uptake (Hiiliard C.J. The movement of N-arachidonylethanolamide (anandamide) across cellular membranes. Chem. Physics Lipids. 2008;108:123-134, with modifications).

[4] = target: T2, human recombinant Fatty acid amide hydrolase (Homo sapiens, UniProt O00519); test: Inhibition of human recombinant FAAH, fluorometric method (assay G); type: biochemical; conditions: human recombinant enzyme, AMC-anandamide substrate (assay G)
T2 sequence (O00519 1-579): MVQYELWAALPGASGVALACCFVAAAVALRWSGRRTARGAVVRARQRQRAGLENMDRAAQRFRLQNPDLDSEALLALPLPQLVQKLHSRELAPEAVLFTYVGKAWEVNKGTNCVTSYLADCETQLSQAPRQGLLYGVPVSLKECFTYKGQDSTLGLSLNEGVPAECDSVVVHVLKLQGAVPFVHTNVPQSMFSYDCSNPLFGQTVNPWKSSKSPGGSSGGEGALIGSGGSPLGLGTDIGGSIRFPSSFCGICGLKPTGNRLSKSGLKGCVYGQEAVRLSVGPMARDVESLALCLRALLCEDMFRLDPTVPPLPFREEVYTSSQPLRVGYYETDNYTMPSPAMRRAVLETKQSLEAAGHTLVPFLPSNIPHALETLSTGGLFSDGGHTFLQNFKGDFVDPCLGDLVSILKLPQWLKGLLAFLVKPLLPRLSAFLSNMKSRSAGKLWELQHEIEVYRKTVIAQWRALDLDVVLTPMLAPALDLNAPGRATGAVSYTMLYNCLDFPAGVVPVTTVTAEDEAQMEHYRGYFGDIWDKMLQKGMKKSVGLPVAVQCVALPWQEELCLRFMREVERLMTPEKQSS
Description: FAAH activity is measured using the modified method described by Omeir et al., Arachidonoyl ethanolamide-[1,2-14C] as a substrate for anandamide amidase. Life Sci. 1995;56(23-24):1999-2005. Human recombinant enzyme is preincubated with reference compound (methylarachidonlyfluorophosphonate, MAFP) and test compounds for 30 min at room temperature in 50 mM Tris containing 1 mM EDTA and 0.1% fatty acid free BSA (pH 8.0). Substrate (7-amino-4-methyl coumarin-arachidonamide, AMC-anandamide) is then added and incubated for 30 min at room temperature. The reaction is stopped by the addition of 2.5 µl of 10 µM URB597. Released 7-amino-4-methyl coumarin (AMC) is detected by fluorometry in order to ascertain any interactions of test compounds with the FAAH enzyme.

[5] = target: T3, CB1 (Homo sapiens, UniProt P21554); test: Radioligand displacement assay on CB1 receptor; type: binding; conditions: displacement of 0.39 nM [3H]CP55,940; membrane recombinantly over-expressing CB1; read-out: Receptor affinity Ki CB1
T3 construct: purchased Perkin Elmer RBHCB1M
Description: (§1) For the CB1 receptor, binding experiments were performed in the presence of 0.39 nM of the radioligand [^3H]CP55,940 (168 Ci/mmol) (Perkin Elmer, Waltham, MA, US) at 30°C in siliconized glass vials together with 7.16 µg of membrane recombinantly over-expressing CB1 (No. RBHCB1M, Perkin Elmer, Waltham, MA, US), which was resuspended in 0.2 mL (final volume) binding-buffer (50 mM TRIS-HCl, 2.5 mM EGTA, 5 mM MgCl2, 0.5 mg/mL fatty acid free BSA, pH 7.4). Test compounds were present at varying concentrations and the nonspecific binding of the radioligand was determined in the presence of 10 µM CP55,940 (Tocris Cookson Ltd., Bristol, UK). After 1.5 h incubation, the suspension was rapidly filtered through 0.05% polyethylenimine pre-soaked GF/C glass fiber filters on a 96-well cell harvester and washed nine times with 0.5 mL ice-cold washing-buffer (50 mM TRIS-HCl, 2.5 mM EGTA, 5 mM MgCl2, 2% BSA, pH 7.4). Radioactivity on filters was measured with a Beckman LS 6500 scintillation counter in 3 mL Ultima Gold scintillation liquid (Perkin Elmer, Waltham, MA, US). Data collected from three independent experiments performed in triplicates were normalized between 100% and 0% specific binding for [^3H]CP55,940. […] Derived from the dissociation constant (KD) of [^3H]CP55,940 and the concentration-dependent displacement (IC50 value), inhibition constants (Ki) of competitor compounds were calculated using the Cheng-Prusoff equation [Ki = IC50/(1+ L/KD)].

[6] = tested on: Arachidonoylethanolamide Transport (AEAT); test: Cellular uptake of [3H]-AEA in U937 cells (assay C); type: cell-based; conditions: Homo sapiens, U-937; [3H]-AEA uptake, assay C (Tables 2 and 3)
[7] = target: CB2 (Homo sapiens, UniProt P34972); test: Radioligand displacement assay on CB2 receptor; type: binding; set-up: purchased Perkin Elmer RBXCB2M; conditions: displacement of 0.11 nM [3H]CP55,940; membrane recombinantly over-expressing CB2; read-out: Receptor affinity Ki CB2
Description: as §1
For CB2-receptor binding studies 3.8 µg of membrane recombinantly over-expressing CB2 (No. RBXCB2M, Perkin Elmer, Waltham, MA, US) were resuspended in 0.6 mL binding buffer (see above) together with 0.11 nM of the radioligand [^3H]CP55,940. The CB2-binding assay was conducted in the same manner as for CB1.

Chain of CB2 (P34972 whole entry): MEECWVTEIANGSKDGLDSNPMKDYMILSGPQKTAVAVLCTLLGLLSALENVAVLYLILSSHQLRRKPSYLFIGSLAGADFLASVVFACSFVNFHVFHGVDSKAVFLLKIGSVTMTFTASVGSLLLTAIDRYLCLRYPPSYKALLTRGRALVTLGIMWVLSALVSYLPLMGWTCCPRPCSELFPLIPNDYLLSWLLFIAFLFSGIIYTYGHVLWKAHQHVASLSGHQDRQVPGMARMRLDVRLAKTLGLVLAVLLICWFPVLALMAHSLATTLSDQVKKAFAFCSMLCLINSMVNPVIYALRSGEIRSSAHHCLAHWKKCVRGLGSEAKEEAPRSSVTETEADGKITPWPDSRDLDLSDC
T3 sequence (P21554 whole entry): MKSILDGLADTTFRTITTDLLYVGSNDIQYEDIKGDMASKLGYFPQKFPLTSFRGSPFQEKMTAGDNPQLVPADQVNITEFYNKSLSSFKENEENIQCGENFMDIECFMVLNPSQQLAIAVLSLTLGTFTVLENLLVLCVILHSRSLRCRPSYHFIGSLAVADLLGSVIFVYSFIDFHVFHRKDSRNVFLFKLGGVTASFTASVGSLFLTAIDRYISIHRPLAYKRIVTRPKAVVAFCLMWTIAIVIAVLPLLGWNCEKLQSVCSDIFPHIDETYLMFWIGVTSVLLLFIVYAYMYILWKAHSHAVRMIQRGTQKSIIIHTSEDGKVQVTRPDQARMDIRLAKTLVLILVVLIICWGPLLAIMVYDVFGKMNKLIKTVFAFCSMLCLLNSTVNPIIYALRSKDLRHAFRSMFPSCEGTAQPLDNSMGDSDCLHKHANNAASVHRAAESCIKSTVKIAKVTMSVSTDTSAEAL

## CCCCCCC/C=C/C=C/C(=O)NCc1ccoc1 [Example 4, (2E,4E)-N-(furan-3-ylmethyl)dodeca-2,4-diene amide]
[1]
  CMC: < 3 µM
[2]; read-out: max. inhibition of FAAH activity
  inhibition at 2 µM: 40%

## CCCCCCC/C=C/C=C/C(=O)NCc1nnn(C(=O)N(C)C)n1 [Example 39]
[3]
  AEAT inhibition at 1 µM: 120 % of control
[4]
  FAAH inhibition at 1 µM: 101 % of control

## CCCCCCC/C=C/C=C/C(=O)Nc1ccc(C2=NCCS2)cc1 [Example 37]
[3]
  AEAT inhibition at 1 µM: 38 % of control
[4]
  FAAH inhibition at 1 µM: 9 % of control

## CCCCCCC/C=C/C=C/C(=O)Nc1ccc(Oc2ccc(C(F)(F)F)cc2)cc1 [Example 84]
[3]
  AEAT inhibition at 1 µM: 30 % of control
[4]
  FAAH inhibition at 1 µM: 30 % of control

## CCCCCCC/C=C/C=C/C(=O)NCC(O)c1ccc(OC)cc1 (centres unmarked) [Example 56]
[3]
  AEAT inhibition at 1 µM: 36 % of control
[4]
  FAAH inhibition at 1 µM: -1 % of control

## CCCCCCC/C=C/C=C/C(=O)NCc1ccccc1 [Example 25]
[3]
  AEAT inhibition at 1 µM: 47 % of control
[4]
  FAAH inhibition at 1 µM: 2 % of control

## CCCCCCC/C=C/C=C/C(=O)NC(CO)Cc1cccs1 (centres unmarked) [Example 49]
[3]
  AEAT inhibition at 1 µM: 25 % of control
[4]
  FAAH inhibition at 1 µM: 25 % of control

## CCCCCCC/C=C/C=C/C(=O)NCc1cccn1C [Example 5]
[1]
  CMC: < 1 µM
[2]; read-out: maximal inhibition of FAAH activity
  inhibition at 1 µM: 32%

## CCCCCCC/C=C/C=C/C(=O)Nc1nc2ccccc2s1 [Example 35]
[3]
  AEAT inhibition at 1 µM: 42 % of control
[4]
  FAAH inhibition at 1 µM: 61 % of control

## CCCCCCC/C=C/C=C/C(=O)N1CCCC1 [Compound D, (2E,4E)-1-(pyrrolidin-1-yl)dodeca-2,4-dien-1-one]
[5]
  Ki: > 20 µM
[1]
  CMC: >5 µM
[2]; 1 µM, pig brain homogenate (assay D)
  FAAH inhibition at 1 µM: <10 % of control
[6]
  EC50: > 10 µM
[7]
  Ki: < 10 µM
